{"source": "paper PMC7845594", "about": "“Novel Immune Modulators Enhance Caenorhabditis elegans Resistance to Multiple Pathogens” (mSphere, 2021)", "key": {"C. elegans transcriptome": {"system": "C. elegans transcriptome", "test": "Transcriptome profiling (Affymetrix microarrays), differentially expressed genes", "assay_type": "in vivo, Caenorhabditis elegans", "method": "To gain additional insight into the effect of LK molecules on C. elegans, young-adult, wild-type worms were treated with each drug at 100 µM for 8 h in the absence of pathogen. RNA was collected, and transcriptome profiling was performed.\nData were determined using Affymetrix microarrays, as described in Materials and Methods. Download Table S3, XLSX file, 0.07 MB.\nTranscriptome profiling was performed on ∼6,000 wild-type, young adult worms incubated with either LK molecules or DMSO for 8 h. RNA isolation was performed using TRIzol extraction, followed by cleanup using RNeasy columns according to the manufacturer’s protocol. Each condition was analyzed in triplicate. Microarray data have been deposited in the GEO database, accession number GSE137516. […] Clustering and generation of the heat map was performed using Cluster 3.0 ([98]) and Treeview ([99]), respectively. Fold change of genes were normalized to average fold change of that gene over all clustered conditions. Genes and conditions were clustered using Euclidean distance and average linkages. […] Microarray data for non-LK molecules were collected from GEO omnibus. WormEXP was used as a secondary method for confirming statistical significance of potential pathways stimulated by each of the LK molecules ([100]). Gene ontologies were generated using DAVID ([101], [102])."}, "[1]": {"system": "P. aeruginosa strain PA14", "test": "MIC assay (bacterial growth, no worms)", "assay_type": "cell-based, Pseudomonas aeruginosa", "method": "For the first round of characterization, 69 novel small molecules previously selected on the basis of their ability to improve C. elegans survival during exposure to P. aeruginosa in liquid ([14]) were tested for the ability to interfere with bacterial growth. MICs were determined for each compound by growing P. aeruginosa strain PA14 in static culture in 384-well plates with serial 2-fold dilutions of compounds. No worms were used in these assays. Next, effective rescue concentrations (EC; defined as the minimum concentration that results in statistically significant survival, compared to dimethyl sulfoxide [DMSO]) ([15], [18]) were determined for each compound using the standard P. aeruginosa liquid killing assay. Sterile glp-4(bn2) worms were used in all liquid-based assays to limit artifacts (i.e., unlaid eggs will hatch and cause matricide).\nPlates were allowed to grow for 24 h at 37°C without shaking. Growth was scored visually on the basis of turbidity. At least three biological replicates were performed."}}, "data": [{"smiles": "CN(C)/N=N/c1ccc(-c2cn(Cc3ccccc3)cn2)cc1", "note": "[LK38]", "values": [{"measurement": "Fold Change", "setting": "C. elegans transcriptome; Gene Y44A6C.1, Affy_ID 182843_at, downregulated genes", "value": 0.4118}, {"measurement": "Fold Change", "setting": "C. elegans transcriptome; Gene Y45F10A.5, Affy_ID 184558_at, downregulated genes", "value": 0.1874}, {"measurement": "Fold Change", "setting": "C. elegans transcriptome; Gene Y46G5A.11, Affy_ID 184716_at, downregulated genes", "value": 0.4392}, {"measurement": "Fold Change", "setting": "C. elegans transcriptome; Gene Y48A6B.7, Affy_ID 193926_at, downregulated genes", "value": 0.1656}, {"measurement": "Fold Change", "setting": "C. elegans transcriptome; Gene Y48A6B.7, Affy_ID 193927_s_at, downregulated genes", "value": 0.1715}, {"measurement": "Fold Change", "setting": "C. elegans transcriptome; Gene Y51A2D.13, Affy_ID 192992_at, downregulated genes", "value": 0.2626}, {"measurement": "Fold Change", "setting": "C. elegans transcriptome; Gene Y51H4A.7, Affy_ID 180145_s_at, downregulated genes", "value": 0.364}, {"measurement": "Fold Change", "setting": "C. elegans transcriptome; Gene Y59E9AR.7, Affy_ID 172629_x_at, downregulated genes", "value": 0.2101}, {"measurement": "Fold Change", "setting": "C. elegans transcriptome; Gene Y59H11AM.1, Affy_ID 172113_x_at, downregulated genes", "value": 0.292}, {"measurement": "Fold Change", "setting": "C. elegans transcriptome; Gene Y71H2AL.1, Affy_ID 177190_at, downregulated genes", "value": 0.3481}, {"measurement": "Fold Change", "setting": "C. elegans transcriptome; Gene Y105C5A.13, Affy_ID 172627_x_at, downregulated genes", "value": 0.08697}, {"measurement": "Fold Change", "setting": "C. elegans transcriptome; Gene Y105C5A.24, Affy_ID 187121_at, downregulated genes", "value": 0.3583}, {"measurement": "Fold Change", "setting": "C. elegans transcriptome; Gene Y119D3B.13, Affy_ID 175112_s_at, downregulated genes", "value": 0.1938}, {"measurement": "Fold Change", "setting": "C. elegans transcriptome; Gene Y119D3B.13, Affy_ID 176131_at, downregulated genes", "value": 0.2809}, {"measurement": "Fold Change", "setting": "C. elegans transcriptome; Gene ZC416.6, Affy_ID 188470_s_at, downregulated genes", "value": 0.4112}, {"measurement": "Fold Change", "setting": "C. elegans transcriptome; Gene ZK112.1, Affy_ID 175995_at, downregulated genes", "value": 0.3894}, {"measurement": "Fold Change", "setting": "C. elegans transcriptome; Gene ZK131.4, Affy_ID 190307_s_at, downregulated genes", "value": 0.355}, {"measurement": "Fold Change", "setting": "C. elegans transcriptome; Gene ZK131.7, Affy_ID 172871_x_at, downregulated genes", "value": 0.3915}, {"measurement": "Fold Change", "setting": "C. elegans transcriptome; Gene ZK354.1, Affy_ID 172927_x_at, downregulated genes", "value": 0.2349}, {"measurement": "Fold Change", "setting": "C. elegans transcriptome; Gene ZK1248.4, Affy_ID 172734_x_at, downregulated genes", "value": 0.2783}, {"measurement": "Fold Change", "setting": "C. elegans transcriptome; Gene ZK1248.6, Affy_ID 172887_x_at, downregulated genes", "value": 0.1775}, {"measurement": "Fold Change", "setting": "C. elegans transcriptome; Gene ZK1251.6, Affy_ID 172938_x_at, downregulated genes", "value": 0.2909}, {"measurement": "Fold Change", "setting": "C. elegans transcriptome; upregulated gene Y19D10A.9, Affy_ID 180592_s_at", "value": 3.58}, {"measurement": "Fold Change", "setting": "C. elegans transcriptome; upregulated gene Y22F5A.4, Affy_ID 182989_at", "value": 2.438}, {"measurement": "Fold Change", "setting": "C. elegans transcriptome; upregulated gene Y22F5A.5, Affy_ID 183028_s_at", "value": 6.765}, {"measurement": "Fold Change", "setting": "C. elegans transcriptome; upregulated gene Y37D8A.6, Affy_ID 181665_at", "value": 2.8924}, {"measurement": "Fold Change", "setting": "C. elegans transcriptome; upregulated gene Y37E3.16, Affy_ID 173045_at", "value": 4.522}, {"measurement": "Fold Change", "setting": "C. elegans transcriptome; upregulated gene Y38E10A.14, Affy_ID 175449_s_at", "value": 26.3223}, {"measurement": "Fold Change", "setting": "C. elegans transcriptome; upregulated gene Y39G10AR.10, Affy_ID 176486_at", "value": 4.567}, {"measurement": "Fold Change", "setting": "C. elegans transcriptome; upregulated gene Y40B10A.6, Affy_ID 176851_at", "value": 66.4819}, {"measurement": "Fold Change", "setting": "C. elegans transcriptome; upregulated gene Y41C4A.16, Affy_ID 194230_x_at", "value": 2.891}, {"measurement": "Fold Change", "setting": "C. elegans transcriptome; upregulated gene Y41D4B.10, Affy_ID 176055_at", "value": 10.2277}, {"measurement": "Fold Change", "setting": "C. elegans transcriptome; upregulated gene Y41D4B.16, Affy_ID 176044_at", "value": 4.224}, {"measurement": "Fold Change", "setting": "C. elegans transcriptome; upregulated gene Y45F10C.4, Affy_ID 186062_at", "value": 3.88}, {"measurement": "Fold Change", "setting": "C. elegans transcriptome; upregulated gene Y45G12C.2, Affy_ID 187084_at", "value": 31.3356}, {"measurement": "Fold Change", "setting": "C. elegans transcriptome; upregulated gene Y46C8AL.2, Affy_ID 172184_x_at", "value": 22.6612}, {"measurement": "Fold Change", "setting": "C. elegans transcriptome; upregulated gene Y46G5A.4, Affy_ID 187467_s_at", "value": 2.088}, {"measurement": "Fold Change", "setting": "C. elegans transcriptome; upregulated gene Y47D3B.10, Affy_ID 175803_at", "value": 15.9397}, {"measurement": "Fold Change", "setting": "C. elegans transcriptome; upregulated gene Y47D7A.1, Affy_ID 176618_at", "value": 2.89}, {"measurement": "Fold Change", "setting": "C. elegans transcriptome; upregulated gene Y47H9C.5, Affy_ID 191065_s_at", "value": 3.429}, {"measurement": "Fold Change", "setting": "C. elegans transcriptome; upregulated gene Y51H7C.1, Affy_ID 186349_at", "value": 10.9287}, {"measurement": "Fold Change", "setting": "C. elegans transcriptome; upregulated gene Y53G8B.2, Affy_ID 184714_s_at", "value": 6.111}, {"measurement": "Fold Change", "setting": "C. elegans transcriptome; upregulated gene Y54G2A.6, Affy_ID 173144_at", "value": 2.211}, {"measurement": "Fold Change", "setting": "C. elegans transcriptome; upregulated gene Y55B1AR.1, Affy_ID 187047_at", "value": 6.195}, {"measurement": "Fold Change", "setting": "C. elegans transcriptome; upregulated gene Y57A10A.23, Affy_ID 187073_at", "value": 4.734}, {"measurement": "Fold Change", "setting": "C. elegans transcriptome; upregulated gene Y66D12A.24, Affy_ID 175124_at", "value": 2.206}, {"measurement": "Fold Change", "setting": "C. elegans transcriptome; upregulated gene Y77E11A.2, Affy_ID 187013_at", "value": 2.874}, {"measurement": "Fold Change", "setting": "C. elegans transcriptome; upregulated gene Y105C5B.15, Affy_ID 186799_at", "value": 3.08}, {"measurement": "Fold Change", "setting": "C. elegans transcriptome; upregulated gene Y105C5B.9, Affy_ID 185162_at", "value": 4.4277}, {"measurement": "Fold Change", "setting": "C. elegans transcriptome; upregulated gene Y106G6D.6, Affy_ID 185498_at", "value": 6.567}, {"measurement": "Fold Change", "setting": "C. elegans transcriptome; upregulated gene ZC155.1, Affy_ID 173222_s_at", "value": 2.443}, {"measurement": "Fold Change", "setting": "C. elegans transcriptome; upregulated gene ZK455.1, Affy_ID 193891_at", "value": 2.648}, {"measurement": "Fold Change", "setting": "C. elegans transcriptome; upregulated gene ZK455.7, Affy_ID 193924_at", "value": 3.307}, {"measurement": "Fold Change", "setting": "C. elegans transcriptome; upregulated gene ZK512.7, Affy_ID 186714_s_at", "value": 3.427}, {"measurement": "Fold Change", "setting": "C. elegans transcriptome; upregulated gene ZK637.13, Affy_ID 173475_s_at", "value": 2.9018}, {"measurement": "Fold Change", "setting": "C. elegans transcriptome; upregulated gene ZK770.3, Affy_ID 180366_s_at", "value": 3.303}, {"measurement": "Fold Change", "setting": "C. elegans transcriptome; upregulated gene ZK899.2, Affy_ID 178376_s_at", "value": 3.754}, {"measurement": "MIC", "setting": "[1]; Pseudomonas aeruginosa, P. aeruginosa PA14, LB media, static culture, no worms, read-out: MIC", "value": "> 655", "unit": "µM"}, {"measurement": "MIC / EC", "setting": "[1]; ratio of MIC to EC, P. aeruginosa PA14", "value": "> 97.8"}]}]}
